Results from ChEMBL document CHEMBL1132649, “Molecular modeling and synthesis of inhibitors of herpes simplex virus type 1 uracil-DNA glycosylase” (J Med Chem, 1999).

System: Uracil-DNA glycosylase (Herpes simplex virus type 1)
Test: Inhibitory potency against HSV-1 UDG( Herpes Simplex virus type-I Uracil DNA glycosylase); 10-15% inhibition was observed at a concentration of 40 uM
Conditions: Human alphaherpesvirus 1

inhibition, 15%:
CCCCCCc1ccc(Nc2cc(=O)[nH]c(=O)n2CC)cc1
CCCCCCc1ccc(Nc2cc(=O)[nH]c(=O)n2CCC)cc1
CCCCCCc1ccc(Nc2cc(=O)[nH]c(=O)n2C)cc1
